In patent publication US11541057B2, “Thienopyrimidinone NMDA receptor modulators and uses thereof” (Cadent Therapeutics, Inc., priority 2015, dated 2023):

Target: T1, NMDA receptor GRIN1/GRIN2B (NR2B) expressed in HEK293 cells (Homo sapiens, UniProt Q13224)
T1 construct: host or cells: HEK293
Assay: Reversal of Ro 25-6981-mediated suppression of the Ca2+ response (fluo-8 fluorescence, FDSS) in HEK293 cells expressing GRIN1 and GRIN2B
Type: cell-based
Settings: % reversal=100*(R−Rneg)/(Rpos−Rneg) of Ro 25-6981 suppression of co-agonist (glutamate/glycine) Ca2+ response, 10 min pre-incubation, compound concentration not given
Experimental: HEK293 cells with constructs conferring stable expression of the GRIN1 gene and tetracycline-inducible expression of the GRIN2B gene (Chantest, Cleveland, Ohio) are grown to ˜75% confluence in tissue culture flasks at 37° C., 5% CO2. NR2B expression is induced by overnight incubation with 0.3-0.4 μg/ml tetracycline in the presence of 2.5 mM ARL-15896 at 37° C., followed by moving to 30° C. for 3-5 hours. Cells are next harvested using TripleExpress™ (Life Technologies, Carlsbad, Calif.) according to the manufacturer's instructions, first removing culture medium, rinsing with Dulbecco's phosphate buffered saline (Ca^2+ and Mg^2+-free), and then adding the TripleExpress™ reagent. Harvested cells are spun down, washed twice in Ca^2+- and Mg^2+-free Hank's Balanced Salt Solution with 20 mM HEPES and 10 mM glucose, pH 7.4 (HHnoCa solution), and counted with viability assessed using Trypan Blue. Cells are loaded with fluo-8 Ca^2+-sensitive dye in HHnoCa solution according to the manufacturer's directions (AAT Bioquest, Sunnyvale, Calif.), incubating at 37° C. for 20 minutes followed by 25 minutes at 22-25° C. After a wash in HHnoCa to remove extracellular dye, cells are resuspended in HHnoCa and plated at […] cells per well in a volume of 25 μl/well in 384 well black-wall, clear bottom plates (Hamamatsu, Middlesex, N.J.). Plates are then centrifuged to create a monolayer in the wells and stored in the dark until used.
Prior to analysis, compound plates are prepared with each compound at 6× the final desired concentration. From stock solutions at 10 mM in 100% DMSO, compounds are spotted in the desired amounts using an ECHO liquid handler (Labcyte, Sunnyvale, Calif.) into wells of a 384-well plate and then diluted with 50 μl of HHnoCa containing 750 nM Ro 25-6981 and 120 μM 5,7-dichlorokynurenic acid (both purchased from Tocris Bioscience (Bristol, England) and maintained as 10 mM stock solutions in 100% DMSO). To insure complete compound dissolution, these plates are then placed in an orbital shaker for at least one hour. Also prepared prior to the assay is a co-agonist plate containing HHnoCa with 240 μM glutamate, 2.4 mM glycine, and 7.2 mM CaCl2, which is 2.4× the desired final concentration of each reagent. Both the compound plate and co-agonist plate are 384-well polypropylene plates from Thermo Fisher Scientific, Waltham, Mass.
The assay is performed by first adding 10 μl solution from each well of the compound plate described above to the cell plate using a CyBiWell liquid handler (Analytik Jena AG, Jena, Germany), followed by 10 minutes pre-incubation in the dark. Cell plates are then loaded onto a Hamamatsu FDSS 6000 plate reader. After a 30-second baseline, 25 μl is added to each well from the co-agonist plate, and the fluorescence signal is recorded for another 2 minutes. FDSS software applies shading and autofluorescence correction, and resultant raw fluorescence measurements are exported in the form of a fluorescence ratio for each well to its own reading at time zero in the experiment. In each plate, negative control wells consist of wells where Ro 25-6981 and 5,7 dichlorokynurenic acid are present and co-agonist is applied in the absence of any added assay compound. Under these conditions, the Ca^2+ response to co-agonist is suppressed. Positive control wells also present in each plate contain 5,7 dichlorokynurenic acid but no Ro 25-6981, so that co-agonist addition results in a large Ca^2+ response. Compounds tested are evaluated on the basis of their ability to reverse the suppression of the Ca^2+ response mediated by Ro 25-6981, which is quantified as % reversal=100*(R−Rneg)/(Rpos−Rneg) where R is the fluorescence ratio for the test compound at the end of the experiment and Rneg and Rpos are the end ratios for the negative and positive controls, respectively. […]

T1 sequence (Q13224 27-1484, other chains not shown): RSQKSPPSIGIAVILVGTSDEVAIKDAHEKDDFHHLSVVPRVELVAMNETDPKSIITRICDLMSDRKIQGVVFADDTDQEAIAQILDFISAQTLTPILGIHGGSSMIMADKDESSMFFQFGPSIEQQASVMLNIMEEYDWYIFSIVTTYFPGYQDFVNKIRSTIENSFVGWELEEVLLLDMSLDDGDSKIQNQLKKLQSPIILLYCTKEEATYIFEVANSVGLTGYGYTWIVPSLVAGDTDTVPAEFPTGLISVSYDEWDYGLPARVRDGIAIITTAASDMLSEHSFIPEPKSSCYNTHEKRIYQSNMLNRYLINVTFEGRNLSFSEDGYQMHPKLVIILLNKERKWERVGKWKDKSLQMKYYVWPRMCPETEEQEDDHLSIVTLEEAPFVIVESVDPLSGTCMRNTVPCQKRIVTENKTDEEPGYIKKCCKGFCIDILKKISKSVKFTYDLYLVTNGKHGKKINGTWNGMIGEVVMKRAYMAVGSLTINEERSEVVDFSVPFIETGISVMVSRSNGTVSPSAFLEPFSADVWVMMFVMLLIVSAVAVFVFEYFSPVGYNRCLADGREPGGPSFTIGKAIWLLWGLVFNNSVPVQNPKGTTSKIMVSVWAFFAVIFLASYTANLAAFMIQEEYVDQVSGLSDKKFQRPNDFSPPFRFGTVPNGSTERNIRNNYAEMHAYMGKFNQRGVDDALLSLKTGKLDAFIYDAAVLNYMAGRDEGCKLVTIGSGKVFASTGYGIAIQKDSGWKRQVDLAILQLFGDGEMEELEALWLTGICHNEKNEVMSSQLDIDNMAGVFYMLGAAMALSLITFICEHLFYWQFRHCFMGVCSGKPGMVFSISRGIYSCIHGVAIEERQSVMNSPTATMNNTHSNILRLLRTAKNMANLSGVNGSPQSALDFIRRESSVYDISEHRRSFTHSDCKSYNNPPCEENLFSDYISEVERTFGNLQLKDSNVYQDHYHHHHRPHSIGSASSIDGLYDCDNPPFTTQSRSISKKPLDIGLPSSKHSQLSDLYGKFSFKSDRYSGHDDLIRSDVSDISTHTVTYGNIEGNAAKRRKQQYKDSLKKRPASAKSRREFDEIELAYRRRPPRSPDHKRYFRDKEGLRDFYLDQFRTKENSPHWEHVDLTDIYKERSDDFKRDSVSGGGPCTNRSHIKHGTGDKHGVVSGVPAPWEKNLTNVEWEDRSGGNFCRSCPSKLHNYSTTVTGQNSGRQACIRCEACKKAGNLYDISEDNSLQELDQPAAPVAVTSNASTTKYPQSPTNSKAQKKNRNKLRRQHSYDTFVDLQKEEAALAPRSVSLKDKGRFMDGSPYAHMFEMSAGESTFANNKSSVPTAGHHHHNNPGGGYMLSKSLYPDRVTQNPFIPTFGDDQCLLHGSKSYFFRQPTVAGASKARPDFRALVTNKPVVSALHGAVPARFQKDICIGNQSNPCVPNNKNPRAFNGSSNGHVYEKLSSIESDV

| Response Recovered (%) | Compound |
| --- | --- |
| 71 | O=C(Cn1cnc2scc(-c3ccc(Cl)c(Cl)c3)c2c1=O)N1CC[C@@H](F)C1 [Example 68, 5-(3,4-dichlorophenyl)-3-{2-[(3R)-3-fluoropyrrolidin-1-yl]-2-oxoethyl}-3H,4H-thieno[2,3-d]pyrimidin-4-one] |
| 94 | O=C(Cn1cnc2scc(-c3ccc(Cl)c(Cl)c3)c2c1=O)N1CC[C@H](F)C1 [Example 69, 5-(3,4-dichlorophenyl)-3-{2-[(3S)-3-fluoropyrrolidin-1-yl]-2-oxoethyl}-3H,4H-thieno[2,3-d]pyrimidin-4-one] |
| 1 | O=C(Cn1cnc2sc(-c3ccc(Cl)cc3)cc2c1=O)N1CCCC1 [Example 74, 6-(4-chlorophenyl)-3-(2-oxo-2-(pyrrolidin-1-yl)ethyl)thieno[2,3-d]pyrimidin-4(3H)-one] |
| 0 | O=C(Cn1cnc2sc(-c3ccc(Cl)cc3)cc2c1=O)N1CCCCC1 [Example 75, 6-(4-chlorophenyl)-3-[2-oxo-2-(piperidin-1-yl)ethyl]-3H,4H-thieno[2,3-d]pyrimidin-4-one] |
| 34 | O=C(Cn1cnc2sc(-c3ccc(Cl)cc3)cc2c1=O)NC1CC1 [Example 76, 2-[6-(4-chlorophenyl)-4-oxo-3H,4H-thieno[2,3-d]pyrimidin-3-yl]-N-cyclopropylacetamide] |
| 18 | O=C(Cn1cnc2sc(-c3ccc(Cl)cc3)cc2c1=O)N1CCOCC1 [Example 77, 6-(4-chlorophenyl)-3-[2-(morpholin-4-yl)-2-oxoethyl]-3H,4H-thieno[2,3-d]pyrimidin-4-one] |
| 13 | O=C(Cn1cnc2sc(-c3ccc(Cl)cc3)cc2c1=O)N1CCC(F)(F)CC1 [Example 78, 6-(4-chlorophenyl)-3-[2-(4,4-difluoropiperidin-1-yl)-2-oxoethyl]-3H,4H-thieno└2,3-d┘pyrimidin-4-one] |
| 17 | Cc1sc2ncn(CC(=O)N3CCCC3)c(=O)c2c1-c1ccc(Cl)cc1 [Example 79, 5-(4-Chloro-phenyl)-6-methyl-3-(2-oxo-2-pyrrolidin-1-yl-ethyl)-3H-thieno[2,3-d]pyrimidin-4-one] |
| 10 | Cc1sc2ncn(CC(=O)N3CCCC3C(F)(F)F)c(=O)c2c1-c1ccc(Cl)cc1 (centres unmarked) [Example 80, 5-(4-chlorophenyl)-6-methyl-3-{2-oxo-2-[2-(trifluoromethyl)pyrrolidin-1-yl]ethyl}-3H,4H-thieno[2,3-d]pyrimidin-4-one] |
| 40 | Cc1sc2ncn(CC(=O)N3CCCC3)c(=O)c2c1-c1ccc(F)c(C(F)(F)F)c1 [Example 81, 5-[4-fluoro-3-(trifluoromethyl)phenyl]-6-methyl-3-[2-oxo-2-(pyrrolidin-1-yl)ethyl]-3H,4H-thieno[2,3-d]pyrimidin-4-one] |
| 15 | Cc1sc2ncn(CC(=O)N3CCCC3)c(=O)c2c1-c1ccc(Cl)c(C(F)(F)F)c1 [Example 82, 5-[4-chloro-3-(trifluoromethyl)phenyl]-6-methyl-3-[2-oxo-2-(pyrrolidin-1-yl)ethyl]-3H,4H-thieno[2,3-d]pyrimidin-4-one] |
| 45 | Cc1sc2ncn(CC(=O)N3CCCC3)c(=O)c2c1-c1ccc(F)c(Cl)c1 [Example 83, 5-(3-chloro-4-fluorophenyl)-6-methyl-3-[2-oxo-2-(pyrrolidin-1-yl)ethyl]-3H,4H-thieno[2,3-d]pyrimidin-4-one] |
| 60 | Cc1sc2ncn(CC(=O)N3CCCC3)c(=O)c2c1-c1ccc(Cl)c(Cl)c1 [Example 84, 5-(3,4-dichlorophenyl)-6-methyl-3-[2-oxo-2-(pyrrolidin-1-yl)ethyl]-3H,4H-thieno[2,3-d]pyrimidin-4-one] |
| 51 | O=C(On1cnc2scc(-c3ccc(Cl)c(C(F)(F)F)c3)c2c1=O)N1CCCC1 [Example 85, 5-(4-chloro-3-(trifluoromethyl)phenyl)-4-oxothieno[2,3-d]pyrimidin-3(4H)-yl pyrrolidine-1-carboxylate] |
| 48 | O=C(On1cnc2scc(-c3ccc(F)c(Cl)c3)c2c1=O)N1CCCC1 [Example 86, 5-(3-chloro-4-fluorophenyl)-4-oxo-3H,4H-thieno[2,3-d]pyrimidin-3-yl pyrrolidine-1-carboxylate] |

The remaining lines, values behind:

| Compound | Response Recovered (%) |
| --- | --- |
| O=C(Cn1cnc2scc(-c3ccc(F)c(C(F)(F)F)c3)c2c1=O)N1CCC(F)C1 (centres unmarked) [Example 61] | 83 |
| O=C(Cn1cnc2scc(-c3ccc(C(F)(F)F)c(Cl)c3)c2c1=O)N1CCC(F)C1 (centres unmarked) [Example 62] | 62 |
| O=C(Cn1cnc2scc(-c3cnc(Cl)c(Cl)c3)c2c1=O)N1CCC(F)C1 (centres unmarked) [Example 63, 5-(5,6-dichloropyridin-3-yl)-3-[2-(3-fluoropyrrolidin-1-yl)-2-oxoethyl]-3H,4H-thieno[2,3-d]pyrimidin-4-one] | 10 |
| O=C(Cn1cnc2scc(-c3ccc(Cl)c(C(F)(F)F)c3)c2c1=O)N1CC[C@@H](F)C1 [Example 64, 5-[4-chloro-3-(trifluoromethyl)phenyl]-3-{2-[(3R)-3-fluoropyrrolidin-1-yl]-2-oxoethyl}-3H,4H-thieno[2,3-d]pyrimidin-4-one] | 117 |
| O=C(Cn1cnc2scc(-c3ccc(Cl)c(C(F)(F)F)c3)c2c1=O)N1CC[C@H](F)C1 [Example 65, 5-[4-chloro-3-(trifluoromethyl)phenyl]-3-{2-[(3S)-3-fluoropyrrolidin-1-yl]-2-oxoethyl}-3H,4H-thieno[2,3-d]pyrimidin-4-one] | 87 |
| O=C(Cn1cnc2scc(-c3ccc(Cl)c(C(F)(F)F)c3)c2c1=O)N1C[C@@H](F)[C@@H](F)C1 [Example 66, 5-[4-chloro-3-(trifluoromethyl)phenyl]-3-{2-[(3R,4S)-3,4-difluoropyrrolidin-1-yl]-2-oxoethyl}-3H,4H-thieno[2,3-d]pyrimidin-4-one] | 103 |
| O=C(Cn1cnc2scc(-c3ccc(Cl)c(Cl)c3)c2c1=O)N1C[C@@H](F)[C@@H](F)C1 [Example 67, 5-(3,4-dichlorophenyl)-3-{2-[(3R,4S)-3,4-difluoropyrrolidin-1-yl]-2-oxoethyl}-3H,4H-thieno[2,3-d]pyrimidin-4-one] | 84 |
| O=C(Cn1cnc2scc(-c3cnc(Cl)c(C(F)(F)F)c3)c2c1=O)N1CCC(F)C1 (centres unmarked) [Example 70, 5-[6-chloro-5-(trifluoromethyl)pyridin-3-yl]-3-[2-(3-fluoropyrrolidin-1-yl)-2-oxoethyl]-3H,4H-thieno[2,3-d]pyrimidin-4-one] | 22 |
| O=C(Cn1cnc2scc(-c3cnc(Cl)c(C(F)(F)F)c3)c2c1=O)N1CC(F)C(F)C1 (centres unmarked) [Example 71, 5-[6-chloro-5-(trifluoromethyl)pyridin-3-yl]-3-[2-(3,4-difluoropyrrolidin-1-yl)-2-oxoethyl]-3H,4H-thieno[2,3-d]pyrimidin-4-one] | 25 |
| O=C(Cn1cnc2scc(-c3cnc(Cl)c(Cl)c3)c2c1=O)N1CC(F)C(F)C1 (centres unmarked) [Example 72, 5-(5,6-dichloropyridin-3-yl)-3-[2-(3,4-difluoropyrrolidin-1-yl)-2-oxoethyl]-3H,4H-thieno[2,3-d]pyrimidin-4-one] | 15 |
| O=C(Cn1cnc2scc(-c3cnc(F)c(Cl)c3)c2c1=O)N1CC(F)C(F)C1 (centres unmarked) [Example 73, 5-(5-chloro-6-fluoropyridin-3-yl)-3-[2-(3,4-difluoropyrrolidin-1-yl)-2-oxoethyl]-3H,4H-thieno[2,3-d]pyrimidin-4-one] | 11 |
